The text below walks through data of US20130210851A1, “Crystalline forms of a hexahydrofuro[3,4-c]quinoline derivative” (Boehringer Ingelheim International GmbH, priority 2011, published 2013).

Entries after “also recorded” stand apart in the source; their conditions may differ. Like-named read-outs stand apart in the source and are kept apart here.

Common to all, as to format: physicochemical
A short description of data set [1]: Solubility of the saturated solution in aqueous media. The note with it: thermodynamic from solid, 48 h shaking at room temperature, read-out: solubility RT - values.
A short description of data set [2]: Intrinsic dissolution rate in aqueous media (rotating disc method). As to conditions: 37° C., 200 rpm. Here is the method: The intrinsic dissolution rate of the crystalline hydrochloride salt form of (3R,9S)-4-isopropyl-7,7-dimethyl-3-(4-(trifluoromethyl)phenyl)-2′,3′,5′,6,6′,7,8,9-octahydro-3H-spiro[furo[3,4-c]quinoline-1,4′-pyran]-9-ol is determined in aqueous media covering a range of pH 1.1-7.4 using the rotating disc method which maintains a constant surface area. 5 mg drug substance is compressed to form a disc at 356.1 N for 60 s. These discs are mounted to specially designed sample holders which fit into a Sotax dissolution tester. The dissolution media (37° C.) are stirred at 200 rpm. Samples are automatically withdrawn every second minute from the dissolution vessel and assayed via UV spectrophotometry. The intrinsic dissolution rate expressed in μg/cm^2/min is calculated using the slope of the concentration versus time plot and from the linear portion of the slope of the dissolution curve, volume of dissolution medium (35 ml) and area (diameter: 2 mm) of the exposed disk.

Data set [3] is described as follows: Hygroscopic behaviour, water sorption isotherms (DVS-1). As to conditions: 25° C.; for hygroscopicity (in words): sorption isotherms 10% to 90% r.h.; for uptake of water: up to 90% r.h. How it is done:
To study the hygroscopic behaviour of this material, sorption isotherms are registered on a DVS-1 water sorption monitor from Surface Measurement Systems. Adsorption and desorption isotherms are performed at 25° C. with 10% r.h. step intervals ranging from 10% r.h. up to 90% r.h.

Data set [4] in a line: Solid state stability under harsh stress conditions. From the text:
Under all applied severe stress conditions only very low or minor decomposition (Σ</=about 6% degradation impurities measured as peak area percentage from HPLC-diagrams using a standard gradient technique) can be observed.

Consider `CC(C)c1nc2c(c3c1[C@@H](c1ccc(C(F)(F)F)cc1)OC31CCOCC1)[C@@H](O)CC(C)(C)C2.Cl` [crystalline hydrochloride salt form, Hydrogen Chloride Salt of (3R,9S)-4-isopropyl-7,7-dimethyl-3-(4-(trifluoromethyl)phenyl)-2′,3′,5′,6,6′,7,8,9-octahydro-3H-spiro[furo[3,4-c]quinoline-1,4′-pyran]-9-ol], for which the solubility (usually the concentration that dissolves in the medium under given conditions) at 48 h in data set [1] (McIlvaine buffer, aqueous buffer, McIlvaine pH 2.2, intrinsic pH 2.0) is 1600 µg/mL; in data set [1] (McIlvaine buffer, aqueous buffer, McIlvaine pH 3.0, intrinsic pH 3.0), 400 µg/mL; in data set [1] (McIlvaine buffer, aqueous buffer, McIlvaine pH 4.0, intrinsic pH 4.0) it was 90 µg/mL; in data set [1] (McIlvaine buffer, aqueous buffer, McIlvaine pH 4.5, intrinsic pH 4.6) it was 30 µg/mL; in data set [1] (McIlvaine buffer, aqueous buffer, McIlvaine pH 5.0, intrinsic pH 5.1), 3 µg/mL; in data set [1] (McIlvaine buffer, aqueous buffer, McIlvaine pH 6.0, intrinsic pH 6.2), below 3 µg/mL. The solubility at 48 h in data set [1] (McIlvaine buffer, aqueous buffer, McIlvaine pH 6.8, intrinsic pH 7.0) is below 3 µg/mL; in data set [1] (McIlvaine buffer, aqueous buffer, McIlvaine pH 7.4, intrinsic pH 7.7, determined by LC/MS), 0.26 µg/mL; in data set [1] (Sorensen buffer, aqueous buffer, Sorensen pH 10.0, intrinsic pH 9.6) it was below 3 µg/mL; in data set [1] (acetate buffer, aqueous buffer, Acetate pH 3.0, intrinsic pH 3.0), 200 µg/mL; in data set [1] (acetate buffer, aqueous buffer, Acetate pH 4.0, intrinsic pH 4.2), 60 µg/mL; in data set [1] (acetate buffer, aqueous buffer, Acetate pH 5.0, intrinsic pH 5.3) it was 6 µg/mL. Moreover, the solubility at 48 h was 1900 µg/mL in data set [1] (simulated gastric fluid, 0.01N HCl, intrinsic pH 1.9); 4100 µg/mL in data set [1] (simulated gastric fluid, 0.1N HCl, intrinsic pH 0.9); 20 µg/mL in data set [1] (FaSSIF (Fasted State Simulated Intestinal), intrinsic pH 6.5); 30 µg/mL in data set [1] (FeSSIF (Fed State Simulated Intestinal), intrinsic pH 5.0); 3100 µg/mL in data set [1] (water, intrinsic pH 1.6). In addition, the dissolution rate in data set [2] (0.1N HCl) was found to be 230 μg/cm^2/min; in data set [2] (pH 2.2 (McIlvaine)) it was 250 μg/cm^2/min; in data set [2] (pH 3.0 (McIlvaine)) it was 60 μg/cm^2/min; in data set [2] (pH 4.0 (McIlvaine)), 10 μg/cm^2/min; in data set [2] (pH 4.5 (McIlvaine)), 10 μg/cm^2/min; in data set [2] (water) it was 10 μg/cm^2/min. The “hygroscopicity (in words)” value in data set [3] is “not hygroscopic; also recorded: non-hygroscopic”. Moreover, the “decomposition, sum of degradation impurities (peak area percentage from HPLC)” value in data set [4] (all stress conditions: 24 hours at 105° C., 72 hours at 60° C. and 70% rel. humid., 24 hours in a Xenotester) was at most 6%. Also, in data set [4] (harsh stress conditions for solid state), the “solid state stability (in words)” value is given as “stable in the solid state”.
In the case of `Br.CC(C)c1nc2c(c3c1[C@@H](c1ccc(C(F)(F)F)cc1)OC31CCOCC1)[C@@H](O)CC(C)(C)C2` [crystalline hydrobromide salt form, Hydrogen Bromide Salt of (3R,9S)-4-isopropyl-7,7-dimethyl-3-(4-(trifluoromethyl)phenyl)-2′,3′,5′,6,6′,7,8,9-octahydro-3H-spiro[furo[3,4-c]quinoline-1,4′-pyran]-9-ol], in data set [3], the “hygroscopicity (in words)” value is reported as “not hygroscopic” and the uptake of water entry is reported as “about 0.9%”.
Regarding `CC(C)c1nc2c(c3c1[C@@H](c1ccc(C(F)(F)F)cc1)OC31CCOCC1)[C@@H](O)CC(C)(C)C2` [compound of formula (I), (3R,9S)-4-isopropyl-7,7-dimethyl-3-(4-(trifluoromethyl)phenyl)-2′,3′,5′,6,6′,7,8,9-octahydro-3H-spiro[furo[3,4-c]quinoline-1,4′-pyran]-9-ol], in data set [3], the “hygroscopicity (in words)” value is reported as “not hygroscopic” and the uptake of water result is “about 0.2%”.
